Test results: patent US20100267561A1, “HERBICIDAL PYRIDAZINONE DERIVATIVES” (priority 2007, published 2010)

Columns and labels:
Experiment in all cases: Test B pre-/postemergence plant response
Type in all cases: in vivo
kochia (Kochia scoparia) = conditions: Postemergence
Procedure, shortened: (§1)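 Visual scoring from 0 (no effect) to 100 (complete control) against untreated controls was done 13 to 15 days after greenhouse treatment. Chemicals were formulated in a surfactant-containing non-phytotoxic solvent and applied to soil preemergence or to 1- to 4-leaf (2-18 cm) plants postemergence.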

[1] = system: yellow nutsedge (Cyperus esculentus)
Procedure, shortened: as §1

[2] = system: blackgrass (Alopecurus myosuroides)
Procedure, shortened: as §1

[3] = system: catchweed bedstraw (Galium aparine); conditions: Preemergence
Procedure, shortened: as §1

[4] = system: lambsquarters (Chenopodium album); conditions: Postemergence
Procedure, shortened: as §1

[5] = system: giant foxtail (Setaria faberii)
Procedure, shortened: as §1

[6] = system: velvetleaf (Abutilon theophrasti)
Procedure, shortened: as §1

corn (Zea mays) = system: corn (Zea mays)
Procedure, shortened: as §1

[7] = system: downy bromegrass (Bromus tectorum)
Procedure, shortened: as §1

[8] = system: common (oilseed) sunflower (Helianthus annuus); conditions: Preemergence
Procedure, shortened: as §1

[9] = system: pigweed (Amaranthus retroflexus)
Procedure, shortened: as §1

[10] = system: common ragweed (Ambrosia elation)
Procedure, shortened: as §1

wild oat (Avena fatua) = system: wild oat (Avena fatua)
Procedure, shortened: as §1

[11] = system: woolly cupgrass (Eriochloa villosa)
Procedure, shortened: as §1

[12] = 31 g ai/ha, scale 0 to 100, 0 no effect, 100 complete control
[13] = Postemergence, 31 g ai/ha, scale 0 to 100, 0 no effect, 100 complete control
[14] = Postemergence, 62 g ai/ha, scale 0 to 100
[15] = Postemergence, 125 g ai/ha, scale 0 to 100
[16] = Postemergence, 250 g ai/ha, scale 0 to 100
[17] = Preemergence, 31 g ai/ha, 0 to 100 scale, 0 no effect, 100 complete control
[18] = Preemergence, 62 g ai/ha, scale 0 to 100
[19] = Preemergence, 125 g ai/ha, scale 0 to 100
[20] = Preemergence, 250 g ai/ha, scale 0 to 100
[21] = 31 g ai/ha, 0 to 100 scale, 0 no effect, 100 complete control

CCc1cc(-c2ccc(C(F)(F)F)cc2)nn1-c1c(O)c(C)nn(C)c1=O [Compound 16]
Plant response rating, Kochia (kochia (Kochia scoparia); [12]): 0
Plant response rating, Kochia (kochia (Kochia scoparia); 62 g ai/ha, scale 0 to 100): 65
Plant response rating, Kochia (kochia (Kochia scoparia); 125 g ai/ha, scale 0 to 100): 98
Plant response rating, Kochia (kochia (Kochia scoparia); 250 g ai/ha, scale 0 to 100): 100
Plant response rating, Nutsedge, Yellow [1, 13]: 0
Plant response rating, Nutsedge, Yellow [1, 14]: 0
Plant response rating, Nutsedge, Yellow [1, 15]: 0
Plant response rating, Nutsedge, Yellow [1, 16]: 0
Plant response rating, Nutsedge, Yellow [1, 17]: 0
Plant response rating, Nutsedge, Yellow [1, 18]: 0
Plant response rating, Nutsedge, Yellow [1, 19]: 0
Plant response rating, Nutsedge, Yellow [1, 20]: 20
Blackgrass plant response rating ([2]; 250 g ai/ha, preemergence, 0-100 scale): 100
Plant response rating, Blackgrass [2, 13]: 98
Plant response rating, Blackgrass [2, 14]: 100
Plant response rating, Blackgrass [2, 15]: 100
Plant response rating, Blackgrass [2, 16]: 100
Plant response rating, Blackgrass [2, 17]: 100
Plant response rating, Blackgrass [2, 18]: 100
Plant response rating, Blackgrass [2, 19]: 100
Plant response rating, Galium [3, 21]: 0
Plant response rating, Galium ([3]; 62 g ai/ha, scale 0 to 100): 0
Plant response rating, Galium ([3]; 125 g ai/ha, scale 0 to 100): 0
Plant response rating, Galium ([3]; 250 g ai/ha, scale 0 to 100): 0
Plant response rating, Lambsquarters [4, 12]: 0
Plant response rating, Lambsquarters ([4]; 62 g ai/ha, scale 0 to 100): 0
Plant response rating, Lambsquarters ([4]; 125 g ai/ha, scale 0 to 100): 0
Plant response rating, Lambsquarters ([4]; 250 g ai/ha, scale 0 to 100): 0
Plant response rating, Foxtail, Giant [5, 13]: 85
Plant response rating, Foxtail, Giant [5, 14]: 98
Plant response rating, Foxtail, Giant [5, 15]: 100
Plant response rating, Foxtail, Giant [5, 16]: 100
Plant response rating, Foxtail, Giant [5, 17]: 0
Plant response rating, Foxtail, Giant [5, 18]: 0
Plant response rating, Foxtail, Giant [5, 19]: 40
Plant response rating, Foxtail, Giant [5, 20]: 70
Plant response rating, Velvetleaf [6, 13]: 0
Plant response rating, Velvetleaf [6, 14]: 0
Plant response rating, Velvetleaf [6, 15]: 0
Plant response rating, Velvetleaf [6, 16]: 0
Plant response rating, Velvetleaf [6, 17]: 0
Plant response rating, Velvetleaf [6, 18]: 0
Plant response rating, Velvetleaf [6, 19]: 0
Plant response rating, Velvetleaf [6, 20]: 0
Plant response rating, Corn (corn (Zea mays); [13]): 98
Plant response rating, Corn (corn (Zea mays); [14]): 98
Plant response rating, Corn (corn (Zea mays); [15]): 100
Plant response rating, Corn (corn (Zea mays); [16]): 100
Plant response rating, Corn (corn (Zea mays); [17]): 0
Plant response rating, Corn (corn (Zea mays); [18]): 100
Plant response rating, Corn (corn (Zea mays); [19]): 100
Plant response rating, Corn (corn (Zea mays); [20]): 100
Plant response rating, Bromegrass, Downy [7, 13]: 60
Plant response rating, Bromegrass, Downy [7, 14]: 70
Plant response rating, Bromegrass, Downy [7, 15]: 90
Plant response rating, Bromegrass, Downy [7, 16]: 100
Plant response rating, Bromegrass, Downy [7, 17]: 90
Plant response rating, Bromegrass, Downy [7, 18]: 100
Plant response rating, Bromegrass, Downy [7, 19]: 100
Plant response rating, Bromegrass, Downy ([7]; Preemergence, 250 g ai/ha, scale 0 to 100 (0 no effect, 100 complete control)): 100
Plant response rating, Sunflower [8, 21]: 0
Plant response rating, Sunflower ([8]; 62 g ai/ha, scale 0 to 100): 0
Plant response rating, Sunflower ([8]; 125 g ai/ha, scale 0 to 100): 0
Plant response rating, Sunflower ([8]; 250 g ai/ha, scale 0 to 100): 0
Plant response rating, Pigweed [9, 13]: 0
Plant response rating, Pigweed [9, 14]: 0
Plant response rating, Pigweed [9, 15]: 0
Plant response rating, Pigweed [9, 16]: 0
Plant response rating, Pigweed [9, 18]: 0
Plant response rating, Pigweed [9, 19]: 0
Plant response rating, Pigweed [9, 20]: 0
Plant response rating, Ragweed [10, 13]: 0
Plant response rating, Ragweed [10, 14]: 0
Plant response rating, Ragweed [10, 15]: 0
Plant response rating, Ragweed [10, 16]: 0
Plant response rating, Ragweed [10, 17]: 0
Plant response rating, Ragweed [10, 18]: 0
Plant response rating, Ragweed [10, 19]: 0
Plant response rating, Ragweed [10, 20]: 0
Plant response rating, Oat, Wild (wild oat (Avena fatua); [13]): 95
Plant response rating, Oat, Wild (wild oat (Avena fatua); [14]): 100
Plant response rating, Oat, Wild (wild oat (Avena fatua); [15]): 100
Plant response rating, Oat, Wild (wild oat (Avena fatua); [16]): 100
Plant response rating, Oat, Wild (wild oat (Avena fatua); [17]): 90
Plant response rating, Oat, Wild (wild oat (Avena fatua); [18]): 95
Plant response rating, Oat, Wild (wild oat (Avena fatua); [19]): 98
Plant response rating, Oat, Wild (wild oat (Avena fatua); [20]): 100
Plant response rating, Cupgrass, Woolly [11, 13]: 80
Plant response rating, Cupgrass, Woolly [11, 14]: 95
Plant response rating, Cupgrass, Woolly [11, 15]: 100
Plant response rating, Cupgrass, Woolly [11, 16]: 100
Plant response rating, Cupgrass, Woolly [11, 17]: 0
Plant response rating, Cupgrass, Woolly [11, 18]: 25
Plant response rating, Cupgrass, Woolly [11, 19]: 70
Plant response rating, Cupgrass, Woolly [11, 20]: 95
